Columns and labels:
[1] = biological target: mitochondrial RNA polymerase (POLRMT) (Mus musculus, UniProt Q8BKF1); assay: Homogeneous TR-FRET assay for mitochondrial transcription activity; format: biochemical; conditions: homogeneous TR-FRET assay according to Example 4
Outline: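 Read-out is TR-FRET (ex 340, em 665 nm) from two adjacent labelled DNA probes annealing to the 407 bp transcript after EDTA/700 mM NaCl stop. Reaction: murine POLRMT, TFAM, TFB2M and LSP plasmid template, compound 10 μM or serial dilution, 10 min rt preincubation, 500 μM each nucleotide, 2 h rt.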

[2] = system: mitochondrial transcription (7S RNA) in HeLa cells; assay: Quantitative real time-PCR assay of inhibition of mitochondrial transcription (7S RNA) in HeLa cells; format: cell-based; conditions: Homo sapiens, 4 h compound incubation, according to Example 5, read-out: cellular qPCR assay
Procedure: Quantitative real-time PCR (qRT-PCR), based on the TaqMan™ (Thermo Fisher Scientific, Waltham Mass.) technology, was carried out essentially as described in Held et al. (1996). HeLa cells were plated one day before compound treatment in RPMI medium supplemented with 10% Fetal Calf Serum and 2 mM L-glutamine. Cells were incubated with dilution series of compounds or vehicle (DMSO) for 4 h, prior to harvest and extraction of the RNA using the RNeasy Mini Kit (Qiagen, Hilden D), according to the manufacturer's instructions. RNA concentrations were measured spectroscopically, using a NanoDrop-2000 (Thermo Fisher Scientific, Waltham Mass.) and normalized prior to cDNA synthesis, using a ‘High-Capacity cDNA Reverse Transcription Kit’ (Thermo Fisher Scientific, Waltham Mass.). qRT-PCR was carried out using the ‘TaqMan Fast Advance Master Mix’ (Thermo Fisher Scientific, Waltham Mass.) on a 7500 Fast Real-Time PCR machine (Applied Biosystems, Foster City Calif.)
For these measurements, three genes were used to compare the effect of the scrutinized compounds in relation to their concentration. The POLRMT-gene was used to detect potential influences on nuclear transcription. Mitochondrial transcription in vivo was monitored by measurements 7S RNA. The TBP (TATA-box binding protein) gene was employed as the control (housekeeping gene) during qRT-PCR. The short-lived mitochondrial 7S RNA, which is not post-transcriptionally stabilized, allowed us to monitor rapid changes in mitochondrial transcription activity following compound addition. Biological triplicates were analyzed using the comparative CT Method (ΔΔCt) method (Bubner and Baldwin, 2004) and reported as Rq % values (Rq=Relative quantification=2−ΔΔCt).

mitochondrial RNA polymerase (POLRMT), sequence (Q8BKF1 42-1207): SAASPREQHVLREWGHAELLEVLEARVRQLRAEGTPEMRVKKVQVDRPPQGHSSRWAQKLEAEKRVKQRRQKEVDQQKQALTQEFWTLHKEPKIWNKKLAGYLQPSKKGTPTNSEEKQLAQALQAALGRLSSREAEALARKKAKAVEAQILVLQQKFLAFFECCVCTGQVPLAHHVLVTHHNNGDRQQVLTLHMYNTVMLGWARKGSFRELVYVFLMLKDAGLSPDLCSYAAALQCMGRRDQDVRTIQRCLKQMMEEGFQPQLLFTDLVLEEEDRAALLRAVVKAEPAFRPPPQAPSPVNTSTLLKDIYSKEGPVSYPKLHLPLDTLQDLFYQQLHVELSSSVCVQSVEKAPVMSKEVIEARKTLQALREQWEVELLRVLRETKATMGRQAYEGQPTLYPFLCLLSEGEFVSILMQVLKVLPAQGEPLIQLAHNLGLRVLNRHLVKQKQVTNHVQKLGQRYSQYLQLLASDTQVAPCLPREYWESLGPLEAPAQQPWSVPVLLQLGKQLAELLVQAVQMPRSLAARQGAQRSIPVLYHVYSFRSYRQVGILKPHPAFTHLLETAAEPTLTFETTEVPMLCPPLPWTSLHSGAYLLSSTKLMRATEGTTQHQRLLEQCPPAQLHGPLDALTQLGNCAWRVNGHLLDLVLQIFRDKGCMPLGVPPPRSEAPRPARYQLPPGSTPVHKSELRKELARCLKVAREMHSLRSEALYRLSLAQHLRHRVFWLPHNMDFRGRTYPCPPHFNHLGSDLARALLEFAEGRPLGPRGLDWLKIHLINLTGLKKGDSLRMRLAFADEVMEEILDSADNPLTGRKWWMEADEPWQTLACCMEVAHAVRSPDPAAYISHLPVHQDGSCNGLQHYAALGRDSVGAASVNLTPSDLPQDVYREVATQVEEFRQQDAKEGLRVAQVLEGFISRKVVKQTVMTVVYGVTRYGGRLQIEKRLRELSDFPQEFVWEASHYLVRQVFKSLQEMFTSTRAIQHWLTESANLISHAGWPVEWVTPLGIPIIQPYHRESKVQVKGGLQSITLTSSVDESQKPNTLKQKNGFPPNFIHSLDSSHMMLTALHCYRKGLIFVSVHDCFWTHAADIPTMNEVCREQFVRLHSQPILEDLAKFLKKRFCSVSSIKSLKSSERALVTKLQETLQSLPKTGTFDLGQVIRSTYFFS

Structure (SMILES) | IC50 [1] [nM] | IC50 [2] [nM]
Cc1cccc(C)c1-c1ccnc2cc(O[C@H](C)C(=O)N3CCCC(S(N)(=O)=O)C3)ccc12 (mixture of isomers) [Compound 119, 1-[rac-(2R)-2-[[4-(2,6-dimethylphenyl)-7-quinolyl]oxy]propanoyl]piperidine-3-sulfonamide] | < 20 | < 10
C[C@@H](Oc1ccc2c(-c3ccc(F)cc3Cl)ccnc2c1)C(=O)N1CCCC(CS(N)(=O)=O)C1 (mixture of isomers) [Compound 123, [1-[rac-(2R)-2-[[4-(2-chloro-4-fluoro-phenyl)-7-quinolyl]oxy]propanoyl]-3-piperidyl]methanesulfonamide] | 100 to 1000 | 50 to 500
C[C@@H](Oc1ccc2c(-c3c(Cl)cc(F)cc3Cl)ccnc2c1)C(=O)N1CCCC2(CC2C(=O)O)C1 (mixture of isomers) [Compound 177, 5-[rac-(2R)-2-[[4-(2,6-dichloro-4-fluoro-phenyl)-7-quinolyl]oxy]propanoyl]-5-azaspiro[2.5]octane-2-carboxylic acid] | < 20 | < 10
Cc1cc(F)cc(C)c1-c1ccnc2cc(O[C@H](C)C(=O)N3CCCC(C4(O)CC4)C3)ccc12 (mixture of isomers) [Compound 180, rac-(2R)-2-[[4-(4-fluoro-2,6-dimethyl-phenyl)-7-quinolyl]oxy]-1-[3-(1-hydroxycyclopropyl)-1-piperidyl]propan-1-one] | < 20 | < 10
Cc1cc(F)cc(C)c1-c1ccnc2cc(O[C@H](C)C(=O)N3CCCC(C4(C(=O)O)CC4)C3)ccc12 (mixture of isomers) [Compound 182, 1-[1-[rac-(2R)-2-[[4-(4-fluoro-2,6-dimethyl-phenyl)-7-quinolyl]oxy]propanoyl]-3-piperidyl]cyclopropanecarboxylic acid] | < 20 | < 10
Cc1cc(F)cc(C)c1-c1ccnc2cc(O[C@H](C)C(=O)N3CCCC(C(C)(C)C(=O)O)C3)ccc12 (mixture of isomers) [Compound 186, 2-methyl-2-[1-[rac-(2R)-2-[[4-(4-fluoro-2,6-dimethyl-phenyl)-7-quinolyl]oxy]propanoyl]-3-piperidyl]propanoic acid] | < 20 | < 10
Cc1cc(F)cc(C)c1-c1ccnc2cc(O[C@H](C)C(=O)N3C(C)CCCC3C)ccc12 (mixture of isomers) [Compound 191, rac-(2R)-1-(2,6-dimethyl-1-piperidyl)-2-[[4-(4-fluoro-2,6-dimethyl-phenyl)-7-quinolyl]oxy]propan-1-one] | < 20 | < 10
C[C@@H](Oc1ccc2c(-c3ccc(F)cc3Cl)ccnc2c1)C(=O)N1CCCC(C2(C(=O)O)CC2)C1 (mixture of isomers) [Compound 194, 1-[1-[rac-(2R)-2-[[4-(2-chloro-4-fluoro-phenyl)-7-quinolyl]oxy]propanoyl]-3-piperidyl]cyclopropanecarboxylic acid] | 20 to 100 | 10 to 50
CC1CCCCN1C(=O)[C@@H](C)Oc1ccc2c(-c3ccc(F)cc3Cl)ccnc2c1 (mixture of isomers) [Compound 200, rac-(2R)-2-[[4-(2-chloro-4-fluoro-phenyl)-7-quinolyl]oxy]-1-(2-methyl-1-piperidyl)propan-1-one] | 20 to 100 | < 10
C[C@@H](Oc1ccc2c(-c3c(Cl)cc(F)cc3Cl)ccnc2c1)C(=O)N1CCCC(C2(O)CC2)C1 (mixture of isomers) [Compound 203, rac-(2R)-2-[[4-(2,6-dichloro-4-fluoro-phenyl)-7-quinolyl]oxy]-143-(1-hydroxycyclopropyl)-1-piperidyl]propan-1-one] | 100 to 1000 | 10 to 50
Cc1ccccc1-c1ccnc2cc(O[C@H](C)C(=O)N3CCC[C@H](C(=O)O)C3)ccc12 [Compound 1, (3S)-1-[(2R)-2-[[4-(o-tolyl)-7-quinolyl]oxy]propanoyl]piperidine-3-carboxylic acid] | < 20 | < 10
Cc1cccc(C)c1-c1ccnc2cc(O[C@H](C)C(=O)N3CCC[C@H](C(=O)O)C3)ccc12 [Compound 2, (3S)-1-[(2R)-2-[[4-(2,6-dimethylphenyl)-7-quinolyl]oxy]propanoyl]piperidine-3-carboxylic acid] | < 20 | < 10
Cc1cccc(C)c1-c1ccnc2cc(O[C@H](C)C(=O)N3CCC[C@H](CC(=O)O)C3)ccc12 [Compound 3, 2-[(3R)-1-[(2R)-2-[[4-(2,6-dimethylphenyl)-7-quinolyl]oxy]propanoyl]-3-piperidyl]acetic acid] | < 20 | < 10
CCOC(=O)[C@H]1CCCN(C(=O)[C@@H](C)Oc2ccc3c(-c4c(C)cccc4C)ccnc3c2)C1 [Compound 4, ethyl (3S)-1-[(2R)-2[[4-(2,6-dimethylphenyl)-7-quinolyl]oxy]propanoyl]piperidine-3-carboxylate] | < 20 | < 10
Cc1cccc(C)c1-c1ccnc2cc(O[C@H](C)C(=O)N3CCC[C@@H](CC(=O)O)C3)ccc12 [Compound 5, 2-[(3S)-1-[(2R)-2-[[4-(2,6-dimethylphenyl)-7-quinolyl]oxy]propanoyl]-3-piperidyl]acetic acid] | < 20 | < 10
C[C@@H](Oc1ccc2c(-c3ccccc3Cl)ccnc2c1)C(=O)N1CCC[C@@H](C(=O)O)C1 [Compound 7, (3R)-1-[(2R)-2-[[4-(2-chlorophenyl)-7-quinolyl]oxy]propanoyl]piperidine-3-carboxylic acid] | < 20 | < 10
CCOC(=O)C[C@H]1CCCN(C(=O)[C@@H](C)Oc2ccc3c(-c4ccccc4C)ccnc3c2)C1 [Compound 8, ethyl 2-[(3R)-1-[(2R)-2-[[4-(o-tolyl)-7-quinolyl]oxy]propanoyl]-3-piperidyl]acetate] | < 20 | 50 to 500
C[C@@H](Oc1ccc2c(-c3ccccc3Cl)ccnc2c1)C(=O)N1CCC[C@H](C(=O)O)C1 [Compound 9, (3S)-1-[(2R)-2-[[4-(2-chlorophenyl)-7-quinolyl]oxy]propanoyl]piperidine-3-carboxylic acid] | < 20 | < 10
C[C@@H](Oc1ccc2c(-c3ccc(F)cc3Cl)ccnc2c1)C(=O)N1CCC[C@H](C(=O)O)C1 [Compound 10, (3S)-1-[(2R)-2-[[4-(2-chloro-4-fluoro-phenyl)-7-quinolyl]oxy]propanoyl]piperidine-3-carboxylic acid] | < 20 | 10 to 50
C[C@@H](Oc1ccc2c(-c3ccc(F)cc3Cl)ccnc2c1)C(=O)N1CCC[C@H](c2nn[nH]n2)C1 [Compound 11, (2R)-2-[[4-(2-chloro-4-fluoro-phenyl)-7-quinolyl]oxy]-1-[(3S)-3-(2H-tetrazol-5-yl)-1-piperidyl]propan-1-one] | < 20 | 50 to 500
C[C@@H](Oc1ccc2c(-c3ccccc3Cl)cc(F)nc2c1)C(=O)N1CCC[C@H](C(=O)O)C1 [Compound 12, (3S)-1-[(2R)-2-[[4-(2-chlorophenyl)-2-fluoro-7-quinolyl]oxy]propanoyl]piperidine-3-carboxylic acid] | < 20 | < 10
Cc1ccccc1-c1ccnc2cc(O[C@H](C)C(=O)N3CCC[C@H](CC(=O)O)C3)ccc12 [Compound 13, 2-[(3R)-1-[(2R)-2-[[4-(o-tolyl)-7-quinolyl]oxy]propanoyl]-3-piperidyl]acetic acid] | 20 to 100 | 10 to 50
CCOC(=O)[C@H]1CCCN(C(=O)[C@@H](C)Oc2ccc3c(-c4ccccc4C)ccnc3c2)C1 [Compound 14, ethyl (3S)-1-[(2R)-2-[[4-(o-tolyl)-7-quinolyl]oxy]propanoyl]piperidine-3-carboxylate] | 20 to 100 | 50 to 500
CCOC(=O)C[C@H]1CCCN(C(=O)[C@@H](C)Oc2ccc3c(-c4ccc(F)cc4Cl)ccnc3c2)C1 [Compound 15, ethyl 2-((R)-1-((R)-2-((4-(2-chloro-4-fluorophenyl)quinolin-7-yl)oxy)propanoyl)piperidin-3-yl)acetate] | 20 to 100 | 50 to 500
C[C@@H](Oc1ccc2c(-c3ccccc3Cl)ccnc2c1)C(=O)N1CCC[C@H](CC(=O)O)C1 [Compound 16, 2-[(3R)-1-[(2R)-2-[[4-(2-chlorophenyl)-7-quinolyl]oxy]propanoyl]-3-piperidyl]acetic acid] | 20 to 100 | 50 to 500
C[C@@H](Oc1ccc2c(-c3ccc(F)cc3Cl)ccnc2c1)C(=O)N1CCC[C@@H](C(=O)O)C1 [Compound 17, (3R)-1-[(2R)-2-[[4-(2-chloro-4-fluoro-phenyl)-7-quinolyl]oxy]propanoyl]piperidine-3-carboxylic acid] | 20 to 100 | 50 to 500
C[C@@H](Oc1ccc2c(-c3ccc(F)cc3Cl)ccnc2c1)C(=O)N1CCC[C@H](CC(=O)O)C1 [Compound 18, 2-((R)-1-((R)-2-((4-(2-chloro-4-fluorophenyl)quinolin-7-yl)oxy)propanoyl)piperidin-3-yl)acetic acid] | 20 to 100 | 50 to 500

— US12281079B2, “Quinoline derivatives, processes for their preparation and uses thereof for the treatment of cancer” (Lead Discovery Center GmbH, priority 2019, dated 2025)
